{"source": "patent US8242086B2", "about": "“Methods and compositions for treating disorders caused by a deficiency in a gene product of a CLN gene” (Duke University, priority 2008, dated 2012)", "key": {"CLN3 knockdown NT2 cells": {"tested_on": "CLN3 knockdown NT2 cells", "assay": "Cell proliferation rate in CLN3 knockdown NT2 cells, Trypan blue dye exclusion", "format": "cell-based, human", "settings": "GalCer 50 ng/ml, 3 days post-transfection", "protocol": "Cell Culture and Cell Treatment. NT2 neuronal precursor cells (ATCC cat no. CRL 1973) were grown in DMEM supplemented with 1% sodium pyruvate, L-glutamine and antibiotics and incubated in 37 C and 5% CO2 for 3 days.\nsiRNA knockdown of CLN3 in NT2 cells. HS1 siRNA ([…]) for CLN3 knockdown was designed using BLOCK-iT RNA™ Designer (Invitrogen). […] siRNA and scrambled universal negative control siRNA oligonucleotides were transfected into wild type NT2 cells using Lipofectamine RNAiMax™ according to manufacturer's protocol. In brief, […] HS1 RNAi duplex or scrambled siRNA universal negative control were diluted in 50 μl DMEM medium without serum. Lipofectamine™ RNAiMAX was mixed gently before use, then 1 μl was diluted in 50 μl DMEM medium. The diluted RNAi duplexes were combined with the diluted Lipofectamine RNAiMAX and incubated for 10 minutes at room temperature. The RNAi duplex-Lipofectamine™ RNAiMAX complexes were added to cells for a final RNA concentration of 10 nM. […]\nDetermination of cell proliferation rate in CLN3 knockdown NT2 cells. 4×10^5 cells transfected with CLN3 siRNA or scrambled siRNA, and treated or not treated with 50 ng/ml GalCer, were seeded and counted with Trypan blue dye exclusion. […]\nNT2 cell proliferation and apoptosis rates. An equal number of NT2 cells was initially seeded and cell number determined at different time points with Trypan blue dye exclusion. […]"}, "[1]": {"tested_on": "CLN3-deficient human NT2 neuronal precursor cells", "assay": "Lipid raft GalCer in CLN3-deficient NT2 cells after GalCer supplementation", "format": "cell-based", "settings": "exogenous GalCer supplementation"}, "[2]": {"assay": "Intraperitoneal GalCer injection of normal mice, GalCer mass in kidney subcellular fractions (TLC)", "format": "in vivo, mouse", "settings": "intraperitoneal injection (α-GalCer), two days prior to sacrifice", "source_text": "Mouse experiments. Six homozygous Cln3^Δex7/8 adult 60 day old mice and six age and sex-matched control mice were deeply anesthetized by xylazine/ketamine and sacrificed by cardiac perfusion of ice-cold phosphate-buffered saline (PBS, pH 7.4), followed by periodate-lysine-phosphate (PLP) fixative (2% paraformaldehyde, 0.01M sodium periodate and 0.1M lysine phosphate buffer, pH 7.4). Mouse brains were snap-frozen in liquid nitrogen. Three of the frozen brains from each group were used for subcellular fractionation and thin layer chromatography, and frozen sections were obtained for fluorescence immunocytochemistry from the rest. At the age of 60 days and two days prior to sacrifice, three of six control mice were injected with α-GalCer at a dose of […] or vehicle intraperitoneally. They were deeply anesthetized by xylazine/ketamine and sacrificed by cardiac perfusion of ice-cold phosphate-buffered saline (PBS, pH 7.4), followed by periodate-lysine-phosphate (PLP) fixative (2% paraformaldehyde, 0.01M sodium periodate and 0.1M lysine phosphate buffer, pH 7.4). […]\nThin Layer Chromatography for Quantification of Galactosylceramide. […] Lipid quantification was accomplished with ImageQuant™ program and normalized with respect to phosphate content."}, "[3]": {"settings": "investigated as a cancer therapy; cited from earlier work"}, "CLN8 protein": {"tested_on": "CLN8 protein", "assay": "Protein-lipid overlay assay, CLN8 protein", "format": "binding", "settings": "lysates from normal cells, custom made sphingostrips", "protocol": "Protein-lipid overlay assay. Membrane arrays (SPHINGOSTRIPS (Echelon Research Laboratories, Salt Lake City, Utah), or lipids were spotted on nitrocellulose membranes and dried for at least one hour. Membranes were blocked with 3% (wt/vol) Fatty Acid Free or FFA-BSA (Sigma-Aldrich, St. Louis, Mo.) in Tris-Buffered Saline Tween-20 (TBST) [150 mM NaCl/10 mM Tris.HCl (pH 8.0), and 0.1% (vol/vol) Tween-20] for 1 h at RT. Blocked membranes were incubated for 8 h at 4° C. with 2 mg/ml of total cell lysate.\nFibroblasts overexpressing CLN3p (AC1 cells) and JNCL fibroblasts were used for the GalCer-CLN3 binding assay. The membranes were then washed five times for 5 min each with TBST. After washing, membranes were incubated with anti-CLN3, CLN1, CLN2, CLN6 or CLN8-antibodies overnight at 1:1000 dilution, followed by additional washing and incubation with horseradish peroxidase-conjugated anti-rabbit IgG goat antibody for 1 h at RT. After a final washing, enhanced chemiluminescence was used to detect binding of NCL proteins to sphingolipids. Intensity values were computed with an ImageJ software program.\nCLN1, CLN2, CLN6, CLN8 and CLN9 proteins also bind to lipids. […]"}}, "note": "Entries after “also recorded” stand apart in the source; their conditions may differ.", "data": [{"substance": "galactosylceramide [GalCer]", "values": [{"measurement": "growth of CLN3-deficient NT2 cells", "setting": "CLN3 knockdown NT2 cells", "value": "normalized growth; also recorded: corrects growth"}, {"measurement": "GalCer in lipid rafts of CLN3-deficient NT2 cells", "setting": "[1]", "value": "normalizes GalCer in lipid rafts"}, {"measurement": "kidney Golgi GalCer", "setting": "[2]", "value": "concomitant reduction in Golgi GalCer; also recorded: concomitant drop in Golgi GalCer"}, {"measurement": "kidney lipid raft (plasma membrane) GalCer", "setting": "[2]", "value": "increase GalCer at the plasma membrane; also recorded: increases kidney lipid raft GalCer"}, {"measurement": "safety in humans", "setting": "[3]", "value": "documented to be safe in humans"}, {"measurement": "binding of CLN8 protein to lipid", "setting": "CLN8 protein", "value": "bind"}]}]}
